Measured values reported in patent publication US20250179083A1, “TRICYCLIC TRIAZOLO COMPOUNDS AS DGK INHIBITORS” (Incyte Corporation, priority 2023, published 2025).

What was measured:
[1] = target: T1, DGKζ (Homo sapiens, UniProt Q13574); experiment: In vitro DGKζ inhibition assay (ADP-Glo); assay type: biochemical; details: His-tagged human recombinant DGKζ 0.4 nM, 30 μM ATP, 20 μM DLG, 90 minute incubation
T1 construct: His; purchased Signal Chem D30-10H
Method: (§1) The DGKα and DGKζ biochemical reactions were performed using His-tagged human recombinant enzymes (Signal Chem, DGKα, #D21-10BH; DGKζ, #D30-10H)) and DLG (Dilauroyl-sn-glycerol) lipid substrate (Signal Chem, #D430-59). ADP-Glo assay was performed using ADP-Glo™ kinase Assay kit (Promega, #V9104). The reactions were carried out in assay buffer containing 40 mM Tris, pH 7.5, 0.1% CHAPS, 0.1% Prionex, 40 mM NaCl, 5 mM MgCl2, 1 mM CaCl2, and 1 mM DTT. DGKα reactions contained 0.1 nM DGKα, 50 μM ATP, and 20 μM DLG. And DGKζ reactions contained 0.4 nM DGKζ, 30 μM ATP, and 20 μM DLG.
(§2) Compounds were added with top concentration of 2 mM with 11 point, 3-fold dilution series. Enzyme solution (contains 2×DGK enzyme concentration in 1× assay buffer) was added to the plate in 2 μL/well volume, followed by 2 μL/well of substrate solution (contains 2× concentration of ATP and DLG substrate in 1× assay buffer). Plates were then centrifuged for 1 min at 1200 RPM and sealed or lidded. For 4 μL reaction volume, test compounds were therefore diluted 100× to final top concentration of 20 μM. After 90 minute incubation, reactions were quenched by addition of 2 μL/well Promega ADP-Glo Reagent, followed by centrifugation and lidding. After 60 min incubation, 2 μL/well Promega Kinase Detection Reagent was added, plates centrifuged, and incubated for 30 min. Plates were then read using Luminescence method on BMG PHERAstar FSX plate reader. Percent inhibition was calculated and IC50s were determined using 4-parameter fit in Genedata Screener. Labcyte Echo acoustic dispenser was used for compound addition, and Formulatrix Tempest liquid handler was used for all reagent dispenses.

[2] = target: T2, DGKα (Homo sapiens, UniProt P23743); experiment: In vitro DGKα inhibition assay (ADP-Glo); assay type: biochemical; details: His-tagged human recombinant DGKα 0.1 nM, 50 μM ATP, 20 μM DLG, 90 minute incubation
T2 construct: His; purchased Signal Chem D21-10BH
Method: as §1, §2

T2 sequence (P23743 whole entry): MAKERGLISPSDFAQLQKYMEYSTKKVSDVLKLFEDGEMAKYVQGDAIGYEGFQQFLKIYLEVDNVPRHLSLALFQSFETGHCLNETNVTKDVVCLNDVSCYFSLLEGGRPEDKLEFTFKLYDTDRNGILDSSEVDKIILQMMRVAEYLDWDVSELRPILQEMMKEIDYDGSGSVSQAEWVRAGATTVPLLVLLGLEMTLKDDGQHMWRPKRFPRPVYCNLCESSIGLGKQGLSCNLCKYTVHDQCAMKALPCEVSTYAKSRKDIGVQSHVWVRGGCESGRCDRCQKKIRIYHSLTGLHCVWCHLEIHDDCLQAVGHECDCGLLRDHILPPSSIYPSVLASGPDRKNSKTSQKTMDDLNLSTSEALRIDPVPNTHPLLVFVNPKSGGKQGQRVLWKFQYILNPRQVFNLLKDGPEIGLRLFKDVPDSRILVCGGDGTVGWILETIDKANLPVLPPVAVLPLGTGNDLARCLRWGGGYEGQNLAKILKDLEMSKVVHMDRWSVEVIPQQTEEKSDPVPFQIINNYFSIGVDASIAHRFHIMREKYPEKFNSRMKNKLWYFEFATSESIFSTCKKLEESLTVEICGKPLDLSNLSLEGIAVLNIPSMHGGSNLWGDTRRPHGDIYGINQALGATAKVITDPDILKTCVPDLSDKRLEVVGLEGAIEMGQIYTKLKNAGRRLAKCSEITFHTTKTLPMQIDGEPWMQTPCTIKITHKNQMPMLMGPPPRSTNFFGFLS
T1 sequence (Q13574 whole entry): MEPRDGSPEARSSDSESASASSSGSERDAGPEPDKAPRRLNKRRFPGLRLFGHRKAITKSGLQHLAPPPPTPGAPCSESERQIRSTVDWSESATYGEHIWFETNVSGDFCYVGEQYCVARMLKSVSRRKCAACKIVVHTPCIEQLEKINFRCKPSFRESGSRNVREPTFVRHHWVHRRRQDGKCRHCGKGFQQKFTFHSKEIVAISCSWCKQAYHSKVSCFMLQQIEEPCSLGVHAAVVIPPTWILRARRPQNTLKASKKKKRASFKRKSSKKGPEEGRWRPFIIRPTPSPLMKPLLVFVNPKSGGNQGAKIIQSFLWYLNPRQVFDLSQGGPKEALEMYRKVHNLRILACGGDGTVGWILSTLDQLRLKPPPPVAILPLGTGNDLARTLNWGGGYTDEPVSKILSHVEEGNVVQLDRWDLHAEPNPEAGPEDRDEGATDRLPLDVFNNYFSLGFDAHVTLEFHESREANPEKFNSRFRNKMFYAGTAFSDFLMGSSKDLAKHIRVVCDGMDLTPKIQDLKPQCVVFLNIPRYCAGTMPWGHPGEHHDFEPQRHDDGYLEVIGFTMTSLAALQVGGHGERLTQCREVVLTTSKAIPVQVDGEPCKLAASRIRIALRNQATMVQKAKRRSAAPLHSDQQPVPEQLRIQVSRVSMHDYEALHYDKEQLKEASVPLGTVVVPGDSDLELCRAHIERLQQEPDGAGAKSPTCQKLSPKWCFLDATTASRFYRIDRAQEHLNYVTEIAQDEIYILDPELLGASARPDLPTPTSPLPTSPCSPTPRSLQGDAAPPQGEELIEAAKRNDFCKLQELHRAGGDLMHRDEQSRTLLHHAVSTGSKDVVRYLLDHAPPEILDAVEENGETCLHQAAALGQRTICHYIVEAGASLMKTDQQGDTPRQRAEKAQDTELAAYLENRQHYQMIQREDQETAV

Compound	IC50 [1] [nM]	IC50 [2] [nM]
Cc1nc2c(N3C[C@@H](C)N(C(c4ccc(Cl)cc4)[C@@H]4CC4(F)F)C[C@@H]3C)nc3nncn3c2n1C[C@@H]1CCCO1 (single isomer, unassigned) [Example 8]	< 20	< 20
CC(C)CC(c1ccc(Cl)cc1)N1C[C@H](C)N(c2nc3nncn3c3c2ncn3C[C@@H]2CCCO2)C[C@H]1C (single isomer, unassigned) [Example 9]	< 20	< 20
CC(C)CC(c1ccc(C(F)(F)F)cc1)N1C[C@H](C)N(c2nc3nncn3c3c2ncn3C[C@@H]2CCCO2)C[C@H]1C (single isomer, unassigned) [Example 14]	< 20	< 20
Cc1nc2c(N3C[C@@H](C)N(C(CC(C)C)c4ccc(Cl)c(F)c4)C[C@@H]3C)nc3nncn3c2n1C[C@@H]1CCCO1 (single isomer, unassigned) [Example 18]	< 20	< 20
C[C@@H]1CN(c2nc3nncn3c3c2ncn3C[C@@H]2CCCO2)[C@@H](C)CN1[C@@H](c1ccc(Cl)cc1)c1ccc(Cl)cn1 (single isomer, unassigned) [Example 21]	< 20	< 20
C[C@@H]1CN(c2nc3nncn3c3c2ncn3C[C@@H]2CCCO2)[C@@H](C)CN1[C@H](c1ccc(Cl)cc1)c1ccc(Cl)cn1 (single isomer, unassigned) [Example 22]	< 20	< 20
Cc1nc2c(N3C[C@@H](C)N(C(c4ccc(Cl)c(F)c4)C(C)C)C[C@@H]3C)nc3nncn3c2n1C[C@@H]1CCCO1 (single isomer, unassigned) [Example 23]	< 20	< 20
Cc1nc2c(N3C[C@@H](C)N(C(c4ccc(C(F)(F)F)cc4)C4CC(F)(F)C4)C[C@@H]3C)cc3nncn3c2n1C[C@@H]1CCCO1 (single isomer, unassigned) [Example 49]	< 20	< 20
C[C@@H]1CN(c2cc3nncn3c3c2ncn3C[C@@H]2CCCO2)[C@@H](C)CN1C(c1ccc(Cl)cc1)[C@@H]1CC1(F)F (single isomer, unassigned) [Example 50]	20 to 200	< 20
CC(C)CC(c1ccc(Cl)cc1)N1C[C@H](C)N(c2cc3nncn3c3c2ncn3C[C@@H]2CCCO2)C[C@H]1C (single isomer, unassigned) [Example 51]	< 20	< 20
CC[C@@H]1CN(c2cc3nncn3c3c2nc(C)n3C[C@@H]2CCCO2)[C@@H](C)CN1C(c1ccc(Cl)cc1)C1CC(F)(F)C1 (single isomer, unassigned) [Example 52]	< 20	< 20
Cc1nc2c(N3C[C@@H](C)N(C(CC(C)C)c4ccc(Cl)cc4)C[C@@H]3C)nc3nncn3c2n1C[C@@H]1CCCO1 (single isomer, unassigned) [Example 53]	< 20	< 20
Cc1nc2c(N3C[C@@H](C)N([C@H](c4ccc(Cl)cc4)[C@H]4CC4(F)F)C[C@@H]3C)nc3nncn3c2n1C[C@@H]1CCCO1 (single isomer, unassigned) [Example 55]	< 20	< 20
Cc1nc2c(N3C[C@@H](C)N([C@@H](c4ccc(Cl)cc4)[C@H]4CC4(F)F)C[C@@H]3C)nc3nncn3c2n1C[C@@H]1CCCO1 (single isomer, unassigned) [Example 56]	< 20	< 20
Cc1nc2c(N3C[C@@H](C)N(C(c4ccc(Cl)cc4)C4CC(F)(F)C4)C[C@@H]3C)cc3nncn3c2n1C[C@@H]1CCCO1 (single isomer, unassigned) [Example 62]	< 20	< 20
C[C@@H]1CN(c2nc3nncn3c3c2ncn3C[C@@H]2CCCO2)[C@@H](C)CN1C(c1ccc(C(F)(F)F)cn1)c1ccc(C(F)(F)F)cn1 [Example 19, 4-((2S,5R)-4-(Bis(5-(trifluoromethyl)pyridin-2-yl)methyl)-2,5-dimethylpiperazin-1-yl)-1-(((S)-tetrahydrofuran-2-yl)methyl)-1H-[1,2,4]triazolo[3,4-b]purine]	< 20	< 20

Further lines, results first:

IC50 [1] [nM]	IC50 [2] [nM]	Compound
< 20	< 20	C[C@@H]1CN(c2nc3nncn3c3c2ncn3C[C@@H]2CCCO2)[C@@H](C)CN1C(c1ccc(C(F)(F)F)cc1)C1CC(F)(F)C1 (single isomer, unassigned) [Example 1]
< 20	< 20	C[C@@H]1CN(c2nc3nncn3c3c2ncn3C[C@@H]2CCCO2)[C@@H](C)CN1C(c1ccc(Cl)cc1)[C@@H]1CC1(F)F (single isomer, unassigned) [Example 6]
< 20	< 20	C[C@@H]1CN(c2nc3nncn3c3c2ncn3C[C@@H]2CCCO2)[C@@H](C)CN1C(c1ccc(Cl)cc1)[C@H]1CC1(F)F (single isomer, unassigned) [Example 7]
< 20	< 20	C[C@@H]1CN(c2nc3nncn3c3c2ncn3C[C@@H]2CCCO2)[C@@H](C)CN1C(C[C@@H](C)C(F)(F)F)c1ccc(Cl)cc1 (single isomer, unassigned) [Example 11]
< 20	< 20	CC(CC(c1ccc(Cl)cc1)N1C[C@H](C)N(c2nc3nncn3c3c2ncn3C[C@@H]2CCCO2)C[C@H]1C)C(F)(F)F (single isomer, unassigned) [Example 12]
< 20	< 20	C[C@@H]1CN(c2nc3nncn3c3c2ncn3C[C@@H]2CCCO2)[C@@H](C)CN1C(c1ccc(C(F)(F)F)cc1)[C@@H]1CC1(F)F (single isomer, unassigned) [Example 13]
< 20	< 20	CC(C)CC(c1ccc(Cl)c(F)c1)N1C[C@H](C)N(c2nc3nncn3c3c2ncn3C[C@@H]2CCCO2)C[C@H]1C (single isomer, unassigned) [Example 15]
< 20	< 20	C[C@@H]1CN(c2nc3nncn3c3c2ncn3C[C@@H]2CCCO2)[C@@H](C)CN1C(C[C@@H](C)C(F)(F)F)c1ccc(Cl)c(F)c1 (single isomer, unassigned) [Example 16]
< 20	< 20	CC(CC(c1ccc(Cl)c(F)c1)N1C[C@H](C)N(c2nc3nncn3c3c2ncn3C[C@@H]2CCCO2)C[C@H]1C)C(F)(F)F (single isomer, unassigned) [Example 17]
< 20	< 20	C[C@@H]1CN(c2cc3nncn3c3c2ncn3C[C@@H]2CCCO2)[C@@H](C)CN1C(c1ccc(Cl)cc1)C1CC(F)(F)C1 (single isomer, unassigned) [Example 61]
< 20	< 20	C[C@@H]1CN(c2nc3nncn3c3c2ncn3C[C@@H]2CCCO2)[C@@H](C)CN1C(c1ccc(C(F)F)c(F)c1)C1CC(F)(F)C1 (stereo partly drawn) [Example 2, 4-((2S,5R)-4-((3,3-Difluorocyclobutyl)(4-(difluoromethyl)-3-fluorophenyl)methyl)-2,5-dimethylpiperazin-1-yl)-1-(((S)-tetrahydrofuran-2-yl)methyl)-1H-[1,2,4]triazolo[3,4-b]purine]
< 20	< 20	Cc1nc2c(N3C[C@@H](C)N(C(c4ccc(C(F)F)cc4F)C4CC(F)(F)C4)C[C@@H]3C)nc3nncn3c2n1C[C@@H]1CCCO1 (stereo partly drawn) [Example 3, 4-((2S,5R)-4-((3,3-Difluorocyclobutyl)(4-(difluoromethyl)-2-fluorophenyl)methyl)-2,5-dimethylpiperazin-1-yl)-2-methyl-1-(((S)-tetrahydrofuran-2-yl)methyl)-1H-[1,2,4]triazolo[3,4-b]purine]
< 20	< 20	Cc1nc2c(N3C[C@@H](C)N(C(c4ccc(C(F)(F)F)cc4F)C4CC(F)(F)C4)C[C@@H]3C)nc3nncn3c2n1C[C@@H]1CCCO1 (stereo partly drawn) [Example 4, 4-((2S,5R)-4-((3,3-Difluorocyclobutyl)(2-fluoro-4-(trifluoromethyl)phenyl)methyl)-2,5-dimethylpiperazin-1-yl)-2-methyl-1-(((S)-tetrahydrofuran-2-yl)methyl)-1H-[1,2,4]triazolo[3,4-b]purine]
< 20	< 20	Cc1nc2c(N3C[C@@H](C)N(C(c4ccc(Cl)cc4F)C4CC(F)(F)C4)C[C@@H]3C)nc3nncn3c2n1C[C@@H]1CCCO1 (stereo partly drawn) [Example 5, 4-((2S,5R)-4-((4-Chloro-2-fluorophenyl)(3,3-difluorocyclobutyl)methyl)-2,5-dimethylpiperazin-1-yl)-2-methyl-1-(((S)-tetrahydrofuran-2-yl)methyl)-1H-[1,2,4]triazolo[3,4-b]purine]
< 20	< 20	C[C@@H]1CN(c2nc3nncn3c3c2ncn3C[C@@H]2CCCO2)[C@@H](C)CN1C(c1ccc(Cl)cc1)C1CC1 (stereo partly drawn) [Example 10, 4-((2S,5R)-4-((4-Chlorophenyl)(cyclopropyl)methyl)-2,5-dimethylpiperazin-1-yl)-1-(((S)-tetrahydrofuran-2-yl)methyl)-1H-[1,2,4]triazolo[3,4-b]purine]
